Values after ≈ are worked out from the molar mass of the structure shown. Where two headings read alike, the source gives them in different places.
Key:
BXPC-3 = assay: Cytotoxicity, pancreas-a BXPC-3; type: cell-based, human; settings: for GI50: Homo sapiens, BXPC-3, BXPC-3
MCF-7 = assay: Cytotoxicity, breast MCF-7; type: cell-based, human; settings: for GI50: Homo sapiens, MCF7
SF-268 = assay: Cytotoxicity, CNS SF-268; type: cell-based, human; settings: for GI50: Homo sapiens
NCI-H460 = assay: Cytotoxicity, lung-NSC NCI-H460; type: cell-based, human; settings: for GI50: Homo sapiens
KM201.2 = assay: Cytotoxicity, colon KM201.2; type: cell-based, human; settings: for GI50: Homo sapiens
DU-145 = assay: Cytotoxicity, prostate DU-145; type: cell-based, human; settings: for GI50: Homo sapiens, DU-145, DU-145
[1] = tested on: P-388 and human tumor cell lines; assay: Cytotoxicity, summary over P-388 and human tumor cell lines; type: cell-based
tubulin [2] = assay: Inhibition of tubulin polymerization; type: biochemical; settings: tubulin 10 μM; extent of assembly after 20 min at 30° C.; read-out: Inhibition of tubulin Polymerization IC50 (μM) ± SD
Procedure: (§1) Extent of assembly after 20 min at 30° C. was the parameter measured. The colchicine binding assay was performed as earlier reported.^27 The tubulin concentration was 1.0 μM, the [3H] colchicine concentration was 5.0 μM, and the potential inhibitor concentrations were as indicated. Binding of colchicine was measured following a 10 min incubation at 37° C.

tubulin [3] = assay: Inhibition of [3H]colchicine binding to tubulin
Procedure: as §1

Candida albicans = assay: Antimicrobial broth microdilution, MIC; type: cell-based; settings: read-out: Minimum inhibitory concentration
Description: (§2) Stilbene production has been correlated with the resistance of grape leaves to fungal infection.

Enterobacter cloacae = assay: Antimicrobial broth microdilution, MIC; type: cell-based; settings: read-out: Minimum inhibitory concentration
Description: as §2

Enterococcus faecalis = assay: Antimicrobial broth microdilution, MIC; type: cell-based; settings: read-out: Minimum inhibitory concentration
Description: as §2

Escherichla coli = assay: Antimicrobial broth microdilution, MIC; type: cell-based; settings: Escherichla coli; read-out: Minimum inhibitory concentration
Description: as §2

Micrococcus luteus = assay: Antimicrobial broth microdilution, MIC; type: cell-based; settings: read-out: Minimum inhibitory concentration
Description: as §2

Staphylococcus aureus = assay: Antimicrobial broth microdilution, MIC; type: cell-based; settings: read-out: Minimum inhibitory concentration
Description: as §2

[4] = tested on: Stenotrophomonas maltophilia; assay: Antimicrobial broth microdilution, MIC; type: cell-based; settings: read-out: Minimum inhibitory concentration
Description: as §2

Streptococcus pneumoniae = assay: Antimicrobial broth microdilution, MIC; type: cell-based; settings: read-out: Minimum inhibitory concentration
Description: as §2

Cryptococcus neoformans = assay: Antimicrobial broth microdilution, MIC; type: cell-based; settings: read-out: Minimum inhibitory concentration
Description: as §2

Neisseria gonorrhoeae = assay: Antimicrobial broth microdilution, MIC; type: cell-based; settings: Neisseria gonorrhoeae; read-out: Minimum inhibitory concentration
Description: as §2

[5] = SF-268, SF-268, read-out: CNS SF-268 GI50
[6] = NCI-H460, NCI-H460, read-out: Lung-NSC NCI-H460 GI50
[7] = KM201.2, read-out: Colon KM201.2 GI50
[8] = NCI-H460, read-out: Lung-NSC NCI-H460 GI50, NCI-H460

Oc1ccc(/C=C\c2cc(O)cc(O)c2)cc1 [Compound 1b, cis-Resveratrol]
GI50 (BXPC-3): 15.5 µg/mL (≈ 67.9 µM) | GI50 (MCF-7): 14.8 µg/mL (≈ 64.8 µM) | GI50 (SF-268; [5]): 5 µg/mL (≈ 21.9 µM) | GI50 (NCI-H460; [6]): 13.2 µg/mL (≈ 57.8 µM) | GI50 (KM201.2; [7]): 22 µg/mL (≈ 96.4 µM) | GI50 (DU-145): 10.2 µg/mL (≈ 44.7 µM) | Cytotoxicity against cancer cell lines, comparison in words [1]: slightly less inhibitory effects on the cancer cell lines tested than did the trans-isomer

COc1ccc(C(=O)c2cc(OC)c(OC)c(OC)c2)cc1O [Compound 2c, phenstatin, reference compound]
GI50 (SF-268; SF-268, read-out: CNS SF-268 GI50, SF-268): 0.052 µg/mL (≈ 0.163 µM) | GI50 (NCI-H460; [8]): 0.0057 µg/mL (≈ 0.0179 µM) | GI50 (KM201.2; read-out: Colon KM201.2 GI50, KM201.2): 0.04 µg/mL (≈ 0.126 µM) | IC50 (tubulin [2]): 1.1 ± 0.1 µM | Inhibition of colchicine binding, in words (tubulin [3]): less potent than combretastatin A-4 (2a) | Inhibition of colchicine binding % Inhibition, 2 μM inhibitor (tubulin [3]; 2 μM inhibitor, tubulin 1.0 μM, [3H]colchicine 5.0 μM, 10 min at 37° C.): 73 ± 1% | Inhibition of colchicine binding % Inhibition, 5 μM inhibitor (tubulin [3]; 5 μM inhibitor, tubulin 1.0 μM, [3H]colchicine 5.0 μM, 10 min at 37° C.): 85 ± 2%

COc1ccc(C=Cc2cc(OC)cc(OC)c2)cc1 [Compound 4b, 3,4′,5-trimethoxystilbene]
Pancreas-a BXPC-3 GI50 (BXPC-3): 0.35 µg/mL | CNS SF-268 GI50 (SF-268): 0.56 µg/mL | Lung-NSC NCI-H460 GI50 (NCI-H460): 0.62 µg/mL | Prostate DU-145 GI50 (DU-145): 1.5 µg/mL | Cytotoxicity against cancer cell lines, comparison in words [1]: superior in activity to resveratrol (1)

COc1cc(/C=C/c2ccc(O)cc2)cc(OC)c1 [Compound 14d, (E)-3,5-dimethoxy-4′-hydroxy-stilbene]
GI50 (BXPC-3): 6.5 µg/mL (≈ 25.4 µM) | GI50 (MCF-7): 2.3 µg/mL (≈ 8.97 µM) | GI50 (SF-268; [5]): 4.3 µg/mL (≈ 16.8 µM) | GI50 (NCI-H460; [6]): 2.7 µg/mL (≈ 10.5 µM) | GI50 (KM201.2; [7]): 3.4 µg/mL (≈ 13.3 µM) | GI50 (DU-145): 2.7 µg/mL (≈ 10.5 µM) | Cytotoxicity against cancer cell lines, comparison in words [1]: slightly less active than their cis counterparts

COc1ccc(C=Cc2cc(O)cc(OC)c2)cc1 [Compound 14g, 3-hydroxy-4′,5-dimethoxystilbene]
Cytotoxicity against cancer cell lines, comparison in words [1]: comparable to that of resveratrol

COc1ccc(C=Cc2cc(O)cc(OC)c2)cc1 [Compound 14h, 3-hydroxy-4′,5-dimethoxystilbene]
MIC (Candida albicans): > 64 µg/mL | MIC (Enterobacter cloacae): > 64 µg/mL | MIC (Enterococcus faecalis; first line (r12)): > 64 µg/mL | MIC (Enterococcus faecalis; second line (r15)): > 64 µg/mL | MIC (Escherichla coli): > 64 µg/mL | MIC (Micrococcus luteus): 16 to 64 µg/mL (≈ 62.4 to 250 µM) | MIC (Staphylococcus aureus): > 64 µg/mL | MIC [4]: > 64 µg/mL | MIC (Streptococcus pneumoniae): > 64 µg/mL | Cytotoxicity against cancer cell lines, comparison in words [1]: slightly less active than their cis counterparts

COc1ccc(C=Cc2cc(O)cc(O)c2)cc1 [Compound 14k, 3,5-dihydroxy-4′-methoxy-stilbene]
Pancreas-a BXPC-3 GI50 (BXPC-3): 14.1 µg/mL | Breast MCF-7 GI50 (MCF-7): 12.7 µg/mL | CNS SF-268 GI50 (SF-268): 15.6 µg/mL | GI50 (NCI-H460; [8]): 6.4 µg/mL (≈ 26.4 µM) | Colon KM201.2 GI50 (KM201.2; KM201.2): 17.7 µg/mL | Prostate DU-145 GI50 (DU-145): 10.6 µg/mL | MIC (Candida albicans): > 64 µg/mL | MIC (Cryptococcus neoformans): > 64 µg/mL | MIC (Enterobacter cloacae): > 64 µg/mL | MIC (Enterococcus faecalis; first line (r12)): > 64 µg/mL | MIC (Enterococcus faecalis; second line (r15)): > 64 µg/mL | MIC (Escherichla coli): > 64 µg/mL | MIC (Micrococcus luteus): > 64 µg/mL | MIC (Neisseria gonorrhoeae): 16 µg/mL (≈ 66 µM) | MIC (Staphylococcus aureus): > 64 µg/mL | MIC [4]: > 64 µg/mL | MIC (Streptococcus pneumoniae): > 64 µg/mL | Cytotoxicity against cancer cell lines, comparison in words [1]: comparable to that of resveratrol

COc1ccc(C=Cc2cc(O)cc(O)c2)cc1 [Compound 14l, 3,5-dihydroxy-4′-methoxy-stilbene]
Pancreas-a BXPC-3 GI50 (BXPC-3): 6.3 µg/mL | Breast MCF-7 GI50 (MCF-7): 3.4 µg/mL | CNS SF-268 GI50 (SF-268): 3.1 µg/mL | Lung-NSC NCI-H460 GI50 (NCI-H460): 6.8 µg/mL | Colon KM201.2 GI50 (KM201.2; KM201.2): 3.8 µg/mL | Prostate DU-145 GI50 (DU-145): 2.7 µg/mL | Cytotoxicity against cancer cell lines, comparison in words [1]: slightly less active than their cis counterparts
